In patent US20220387417A1, “Pharmaceutical Combination and Use Thereof” (CSTONE PHARMACEUTICALS (SUZHOU) CO., LTD., priority 2019, published 2022):
Where “and” joins values, the source holds several entries; their conditions need not be identical. Equal values may be shown once. Where a name gives a salt, the structure may show the parent alone.

Key:
[1] = system: subcutaneous MC38-hPD-L1 transplanted tumor; assay: Antibody 1.14.4 monotherapy or in combination with Lenvatinib mesylate on B-hPD-1 humanized mouse MC38-hPD-L1 colon cancer model: tumor volume, tumor weight, TGI, synergy score; assay type: in vivo
Method: (§1) Mouse colon cancer cells MC38 were purchased from Shun Ran (Shanghai) Biotechnology Co., Ltd., and the cells were cultured in a 37° C., 5% CO2 incubator supplemented with Dulbecco's Modified Eagle's medium containing 10% inactivated fetal bovine serum. MC38 cells were genetically modified to overexpress human PD-L1 and knock out murine PD-L1, the modified cells were named as MC38-hPD-L1 cells.
(§2) MC38-hPD-L1 tumor cells were resuspended in 1×PBS to a concentration of 5×10^6 cells/mL. Each of the B-hPD-1 humanized mice was subcutaneously inoculated at the right lateral thorax region with 0.1 mL of the cell suspension, and a total of 85 mice were inoculated. On the 7th day after inoculation, when the average tumor volume reached about 103 mm^3, the mice with moderate tumor volume were selected and randomly divided into 8 groups according to tumor volume, with 7 mice in each group, and the treatment was initiated on the same day.
Tumor volume was measured three times a week in two dimensions using a caliper, and the volume was expressed in mm^3 using the formula: V=0.5 a×b^2 where a and b were the long and short diameters of the tumor, respectively.
(§3) At the termination of the experiment, the animals were photographed to record the tumor bearing state after euthanasia, and the tumors of the mice were weighed and photographed.
TGITV(%)=[1−(Ti−T0)/(Vi−V0)]×100%.
Ti: tumor volume of the treatment group at day i following treatment; T0: tumor volume of the treatment group at day 0 following treatment; Vi: tumor volume of the control group at day i following treatment; V0: tumor volume of the control group at day 0 following treatment.
At the termination of the experiment, the animals were euthanized, the tumors were separated and weighed, and the difference of tumor weight between each group was calculated. Tumor weight inhibition (TGITW) was calculated by the formula:
TGITW (%)=(WC−WT)/[…]×100%; where We means tumor weight of control group, WT means tumor weight of treatment group.
(§4) The original data measured and observed must be recorded. The original data was analyzed and the results were expressed by mean and standard error (Mean±SEM). The data of body weight, tumor volume and tumor weight was statistically analyzed using independent-samples t-test. All data were analyzed using SPSS, P<0.05 is considered to be statistically significant. The results of the analysis were considered both statistical significance and biological significance.
(§5) Synergy score was calculated using the following formula described in Clarke R. Issues in experimental design and endpoint analysis in the study of experimental cytotoxic agents in vivo in breast cancer and other models[J]. Breast Cancer Research & Treatment, 1997, 46(2-3):255-278, which is incorporated by reference in its entirety:
(§6) Synergy score=((A/C)×(B/C))/(AB/C);
(§7) where A is RTV value of drug A; B is RTV value of drug B; C is RTV value of vehicle control; AB is RTV value of combination treatment with A and B respectively. • Synergy score>1 represents synergistic; • Synergy score=1 represents additive; • Synergy score<1 represents antagonistic.
(§8) where V0 and Vt are the average tumor volume at the start of treatment (day 0) and the average tumor volume on a certain time point (day t).

[2] = Body weight of B-hPD-1 mice bearing MC38-hPD-L1 tumors, Embodiment 1 (antibody 1.14.4 / Lenvatinib mesylate); assay type: in vivo, Mus musculus
Method: as §2
(§9) Animals were weighed 2-3 times a week before tumor inoculation, during animal grouping and the treatment, and before the euthanasia.
as §4

[3] = system: subcutaneous MC38-hPD-L1 transplanted tumor; assay: Antibody 2E5 monotherapy or in combination with Lenvatinib mesylate on B-hPD-1 humanized mouse MC38-hPD-L1 colon cancer model: tumor volume, tumor weight, TGI, synergy score; assay type: in vivo
Method: as §5, §6, §7, §8, §1
as §2, with “of 5×10^5 cells per 0.1 mL.” for “of 5×10^6 cells/mL.”, “cell suspension. When” for “cell suspension, and a total of 85 mice were inoculated. On the 7th day after inoculation, when”, “about 77” for “about 103”, “into 6” for “into 8”, “with 10” for “with 7”
Tumor volume was measured 2-3 times a week in two dimensions using a caliper, and the volume was expressed in mm^3 using the formula: V=0.5 a×b^2 where a and b were the long and short diameters of the tumor, respectively.
as §3
TGITV(%)=[1−(Ti−T0)/(Vi−V0)]×100%. […]
At the termination of the experiment, the animals were euthanized, the tumors were separated and weighed, and the difference of tumor weight between each group was calculated. Tumor weight inhibition (TGITW) was calculated by the formula: […]
as §4, with “significant.” for “significant. The results of the analysis were considered both statistical significance and biological significance.”

[4] = Body weight of B-hPD-1 humanized mice bearing MC38-hPD-L1 tumors, Embodiment 2 (antibody 2E5 / Lenvatinib mesylate); assay type: in vivo, Mus musculus
Method: as §2, with “of 5×10^5 cells per 0.1 mL.” for “of 5×10^6 cells/mL.”, “cell suspension. When” for “cell suspension, and a total of 85 mice were inoculated. On the 7th day after inoculation, when”, “about 77” for “about 103”, “into 6” for “into 8”, “with 10” for “with 7”
as §9
as §4, with “significant.” for “significant. The results of the analysis were considered both statistical significance and biological significance.”

[5] = 17th day after the start of treatment, Antibody 2E5 1 mg/kg i.p., Lenvatinib mesylate 1 mg/kg p.o. QD (G2, G4, G5)

In the case of `COc1cc2nccc(Oc3ccc(NC(=O)NC4CC4)c(Cl)c3)c2cc1C(N)=O` [Lenvatinib mesylate, reference compound], the “Tumor volume (mm^3)/Mean ± SEM Day 16” value ([1]; 16th day after the start of treatment, antibody 1.14.4 3 mg/kg Q2D i.p., Lenvatinib mesylate 1 mg/kg QD p.o.) was 1333 ± 261 mm^3, the “Tumor volume (mm^3)/Mean ± SEM Day 0” value ([1]; Day 0, Antibody 1.14.4 3 mg/kg, Lenvatinib mesylate 1 mg/kg, Table 11) was 103 ± 8 mm^3 and the “Tumor volume (mm^3)/Mean ± SEM Day 0” value ([1]; Day 0 = day of the start of treatment, antibody 1.14.4 3 mg/kg, Lenvatinib mesylate 1 mg/kg, Table 10) was 103 ± 8 mm^3. The “Tumor volume (mm^3)/Mean ± SEM Day 20” value ([1]; Day 20, Antibody 1.14.4 3 mg/kg Q2D i.p., Lenvatinib mesylate 1 mg/kg QD p.o.) was 1726 ± 374 mm^3, the “Tumor weight (g) Mean ± SEM” value ([1]; Day 20, antibody 1.14.4 3 mg/kg, Lenvatinib mesylate 1 mg/kg, Table 13) was 1.244 ± 0.292 g and the “Tumor weight (g), group Mean” value ([1]; group mean (7 mice), Day 20, Antibody 1.14.4 3 mg/kg, Lenvatinib mesylate 1 mg/kg) was 1.244 g. For the same molecule, the “Tumor weight (g), individual animal” value ([1]; individual mouse, 20th day after the start of treatment, Antibody 1.14.4 3 mg/kg Q2D i.p., Lenvatinib mesylate 1 mg/kg QD p.o.) was 1.039 g and 2.048 g and 2.485 g and 0.652 g and 0.408 g and 1.362 g and 0.715 g, the “TGITV (%)” value ([1]; tumor growth inhibition by tumor volume, Day 16, vs hIgG4 control, antibody 1.14.4 3 mg/kg, Lenvatinib mesylate 1 mg/kg) was 38.8% and the TGITW ([1]; tumor weight inhibition vs hIgG4 control, Day 20, Antibody 1.14.4 3 mg/kg, Lenvatinib mesylate 1 mg/kg) was 21.3%. The “Weight (g)/Mean ± SEM Day 16” value ([2]; 16th day after the start of treatment, Antibody 1.14.4 3 mg/kg, Lenvatinib mesylate 1 mg/kg) was 22.5 ± 0.2 g, the “Weight (g)/Mean ± SEM Day 0” value ([2]; Day 0 = day of the start of treatment, Antibody 1.14.4 3 mg/kg, Lenvatinib mesylate 1 mg/kg) was 19.9 ± 0.3 g and the “Weight (g) Changes” value ([2]; Day 16 vs Day 0, Antibody 1.14.4 3 mg/kg, Lenvatinib mesylate 1 mg/kg) was “+2.6 g”. For the same molecule, the “Days after the start of treatment/weight (g), group Mean, day 0” value ([2]; group mean (7 mice), day 0, Antibody 1.14.4 3 mg/kg Q2D i.p., Lenvatinib mesylate 1 mg/kg QD p.o.) was 19.9 g, the “Days after the start of treatment/weight (g), group Mean, day 3” value ([2]; group mean (7 mice), day 3, Antibody 1.14.4 3 mg/kg Q2D i.p., Lenvatinib mesylate 1 mg/kg QD p.o.) was 19.5 g and the “Days after the start of treatment/weight (g), group Mean, day 6” value ([2]; group mean (7 mice), day 6, Antibody 1.14.4 3 mg/kg Q2D i.p., Lenvatinib mesylate 1 mg/kg QD p.o.) was 20.3 g. For the same molecule, the “Days after the start of treatment/weight (g), group Mean, day 8” value ([2]; group mean (7 mice), day 8, Antibody 1.14.4 3 mg/kg Q2D i.p., Lenvatinib mesylate 1 mg/kg QD p.o.) was 20.5 g, the “Days after the start of treatment/weight (g), group Mean, day 10” value ([2]; group mean (7 mice), day 10, Antibody 1.14.4 3 mg/kg Q2D i.p., Lenvatinib mesylate 1 mg/kg QD p.o.) was 20.9 g and the “Days after the start of treatment/weight (g), group Mean, day 12” value ([2]; group mean (7 mice), day 12, Antibody 1.14.4 3 mg/kg Q2D i.p., Lenvatinib mesylate 1 mg/kg QD p.o.) was 21.2 g. For the same molecule, the “Days after the start of treatment/weight (g), group Mean, day 14” value ([2]; group mean (7 mice), day 14, Antibody 1.14.4 3 mg/kg Q2D i.p., Lenvatinib mesylate 1 mg/kg QD p.o.) was 22.3 g, the “Days after the start of treatment/weight (g), group Mean, day 16” value ([2]; group mean (7 mice), day 16, Antibody 1.14.4 3 mg/kg Q2D i.p., Lenvatinib mesylate 1 mg/kg QD p.o.) was 22.5 g and the “Days after the start of treatment/weight (g), group Mean, day 19” value ([2]; group mean (7 mice), day 19, Antibody 1.14.4 3 mg/kg Q2D i.p., Lenvatinib mesylate 1 mg/kg QD p.o.) was 21.9 g. The “Days after the start of treatment/weight (g), group Mean, day 20” value ([2]; group mean (7 mice), day 20, Antibody 1.14.4 3 mg/kg Q2D i.p., Lenvatinib mesylate 1 mg/kg QD p.o.) was 22.7 g, the “Days after the start of treatment/weight (g), individual animal, day 0” value ([2]; individual mouse, day 0, Antibody 1.14.4 3 mg/kg Q2D i.p., Lenvatinib mesylate 1 mg/kg QD p.o.) was 18.6 g and 19.5 g and 19.4 g and 20.0 g and 20.2 g and 20.8 g (2×) and the “Days after the start of treatment/weight (g), individual animal, day 3” value ([2]; individual mouse, day 3, Antibody 1.14.4 3 mg/kg Q2D i.p., Lenvatinib mesylate 1 mg/kg QD p.o.) was 18.8 g and 19.2 g and 18.9 g and 19.7 g and 19.3 g and 20.3 g and 20.2 g. The “Days after the start of treatment/weight (g), individual animal, day 6” value ([2]; individual mouse, day 6, Antibody 1.14.4 3 mg/kg Q2D i.p., Lenvatinib mesylate 1 mg/kg QD p.o.) was 19.4 g and 20.1 g and 19.8 g and 20.6 g and 20.3 g and 21.2 g and 20.8 g, the “Days after the start of treatment/weight (g), individual animal, day 8” value ([2]; individual mouse, day 8, Antibody 1.14.4 3 mg/kg Q2D i.p., Lenvatinib mesylate 1 mg/kg QD p.o.) was 19.5 g and 20.6 g and 20.4 g and 20.7 g and 20.3 g and 21.0 g (2×) and the “Days after the start of treatment/weight (g), individual animal, day 10” value ([2]; individual mouse, day 10, Antibody 1.14.4 3 mg/kg Q2D i.p., Lenvatinib mesylate 1 mg/kg QD p.o.) was 20.2 g and 21.1 g and 20.1 g and 21.5 g and 20.4 g and 21.7 g and 21.4 g. The “Days after the start of treatment/weight (g), individual animal, day 12” value ([2]; individual mouse, day 12, Antibody 1.14.4 3 mg/kg Q2D i.p., Lenvatinib mesylate 1 mg/kg QD p.o.) was 20.1 g and 21.1 g (2×) and 21.4 g and 20.7 g and 22.2 g and 21.6 g, the “Days after the start of treatment/weight (g), individual animal, day 14” value ([2]; individual mouse, day 14, Antibody 1.14.4 3 mg/kg Q2D i.p., Lenvatinib mesylate 1 mg/kg QD p.o.) was 20.9 g and 22.9 g and 22.0 g (2×) and 22.2 g and 23.0 g (2×) and the “Days after the start of treatment/weight (g), individual animal, day 16” value ([2]; individual mouse, day 16, Antibody 1.14.4 3 mg/kg Q2D i.p., Lenvatinib mesylate 1 mg/kg QD p.o.) was 21.6 g and 22.8 g (2×) and 22.6 g and 22.5 g and 21.9 g and 23.0 g. For the same molecule, the “Days after the start of treatment/weight (g), individual animal, day 19” value ([2]; individual mouse, day 19, Antibody 1.14.4 3 mg/kg Q2D i.p., Lenvatinib mesylate 1 mg/kg QD p.o.) was 21.2 g and 23.0 g (2×) and 21.9 g and 21.4 g and 22.6 g and 20.3 g, the “Days after the start of treatment/weight (g), individual animal, day 20” value ([2]; individual mouse, day 20, Antibody 1.14.4 3 mg/kg Q2D i.p., Lenvatinib mesylate 1 mg/kg QD p.o.) was 21.5 g and 23.2 g (3×) and 22.6 g and 22.1 g and 22.9 g and the “Tumor volume (mm^3)/Mean ± SEM Day 17” value [3, 5] was 891 ± 149 mm^3. The “Tumor weight (g) Mean ± SEM” value ([3]; Day 17, Antibody 2E5 1 mg/kg, Lenvatinib mesylate 1 mg/kg (G2, G4, G5)) was 0.767 ± 0.103 g, the “Tumor growth inhibition (%)” value ([3]; by tumor volume, Day 17, vs hIgG4 control, Antibody 2E5 1 mg/kg, Lenvatinib mesylate 1 mg/kg (G2, G4, G5)) was 68.2% and the “Tumor growth inhibition (%)” value ([3]; tumor weight analysis (Table 21), Day 17, vs IgG4 control, Antibody 2E5 1 mg/kg, Lenvatinib mesylate 1 mg/kg (G2, G4, G5)) was 63.2%. The “Weight (g)/Mean ± SEM Day 17” value [4, 5] was 28.0 ± 0.8 g, the “Weight (g)/Mean ± SEM Day 0” value ([4]; Day 0, Antibody 2E5 1 mg/kg i.p., Lenvatinib mesylate 1 mg/kg p.o. QD (G2, G4, G5)) was 24.9 ± 0.8 g and the “Weight (g) Changes” value ([4]; Day 17 vs Day 0, Antibody 2E5 1 mg/kg, Lenvatinib mesylate 1 mg/kg (G2, G4, G5)) was “+3.1 g”.
